Consider one compound from patent publication US20120003191A1, “VALPROIC ACID, DERIVATIVES, ANALOGUES, AND COMPOSITIONS INCLUDING SAME AND METHODS FOR THEIR THERAPEUTIC USE” (priority 2009, published 2012).

For data set [1] the following is noted: humans; cited from earlier work.
A further data set relates to p70S6K. As to the kind of experiment: Western blotting of activated p70S6K in α7+/− myotubes. Format: cell-based, mouse. The note with it: VPA for 48 or 72 hours. As for the experimental part:
(§1) α7^+/− myogenic cells were cultured on 1% gelatin-coated plastic plates in Ham's F-10 growth medium (20% FBS, 0.5% chick embryo extract, 5 ng/ml bFGF, 2 mM glutamine, 100 U/ml penicillin and 100 μg/ml streptomycin). After six passages, cells were grown in DMEM containing 20% FBS, 0.5% chick embryo extract, 2 mM glutamine, 100 U/ml penicillin and 100 μg/ml streptomycin. Differentiation was induced by switching the medium to DMEM containing 2% horse serum and antibiotics when cells attained 90% confluence. After 48 hours of differentiation, 2 mM VPA was added and supplied fresh every 24 hours. Wortmannin was used at 100 nM and added fresh every 24 hours.
(§2) Cell lysates of differentiating cells on 60 mm dishes were prepared as follows: the cells were washed twice with PBS and 200 μl Triton X-100 lysis buffer (2% Triton X-100, 20 mM Tris-Cl, pH 7.4, 150 mM NaCl, 1 mM EDTA, 1 mM EGTA, 2.5 mM NaPPi, 1 mM β-glycerophosphate, 1 mM sodium vanadate, 1:200 Protease Inhibitor Cocktail (EMD Chemicals, San Diego, Calif.) and 1 mM PMSF) were added. […] Protein concentrations were determined by the Bradford assay. […] The supernatants were collected and protein concentrations were determined spectrophotometrically at OD260 and OD280. […] ImageQuant analysis software (Molecular Dynamics, Sunnyvale, Calif.) was used to quantify band intensity.
A general note: Immunoblotting shows a protein as a band on a membrane.

For the next data set, the system named is α7 integrin. As to the kind of experiment: Western blotting of α7 integrin in muscle extracts of mdx/utrn−/− mice. Format: in vivo, mouse. To be noted: 240 mg/kg i.p. twice daily for 5 weeks. As for the experimental part:
(§3) mdx/utrn−/− mice lack both dystrophin and utrophin, and were bred and genotyped as reported in Burkin, et al., Enhanced expression of the alpha 7 beta 1 integrin reduces muscular dystrophy and restores viability in dystrophic mice, J. Cell Biol. 152:1207-18 (2001). 240 mg/kg body weight of VPA was injected intraperitoneally twice daily into mdx/utrn^−/− mice (n=9) starting at 3 weeks of age, for a period of 5 weeks. Control mice were injected with saline (n=9). Body-weights were determined daily.
as §2, with “added. The cells were scraped and transferred into Eppendorf tubes, the cell suspensions were triturated and centrifuged at 8000×g at 4° C. for 10 minutes, and the supernatants were collected.” for “added.”

A further data set relates to α7A integrin. Nature of the data set: Western blotting of α7A integrin in α7+/− myotubes. Format: cell-based, mouse. The note with it: 2 mM VPA for 72 hours. How it is done:
as §1, §2

The next data set has as its system mdx/utrn−/− mice. As to the kind of experiment: Masson's trichrome staining of quadriceps cryosections. Format: in vivo, mouse. The note with it: 240 mg/kg i.p. twice daily for 5 weeks. As for the experimental part: as §3, with “daily. Masson's trichrome staining kit (American MasterTech Scientific Inc., Lodi, Calif.) was used to stain 8 μm muscle cryosections, as per the manufacturer's instructions.” for “daily.”

The subject of the next data set is α7B integrin. As to the kind of experiment: Western blotting of α7B integrin in α7+/− myotubes. To be noted: 2 mM VPA for 72 hours. Format: cell-based, mouse. As for the experimental part:
as §1, §2

For the next data set, the system named is Akt. Nature of the data set: Western blotting of activated and total Akt in quadriceps of mdx/utrn−/− mice. In kind it is in vivo, mouse. To be noted: 240 mg/kg i.p. twice daily for 5 weeks. How it is done: as §3
as §2, with “added. The cells were scraped and transferred into Eppendorf tubes, the cell suspensions were triturated and centrifuged at 8000×g at 4° C. for 10 minutes, and the supernatants were collected.” for “added.”

In the next data set the test system is type VI collagen. Nature of the data set: Western blotting of type VI collagen in quadriceps. Format: in vivo, mouse. To be noted: 240 mg/kg i.p. twice daily for 5 weeks. How it is done: as §3
as §2, with “added. The cells were scraped and transferred into Eppendorf tubes, the cell suspensions were triturated and centrifuged at 8000×g at 4° C. for 10 minutes, and the supernatants were collected.” for “added.”

Another data set relates to α7+/− myotubes. As to the kind of experiment: Quantification of apoptosis in myotubes (TUNEL assay). Format: cell-based, mouse. How it is done:
Differentiating cultures of α7^+/− cells on 1% gelatin-coated Lab-Tek 8-well chamber slides (Nalge-Nunc International) were exposed to 2 mM VPA on day two of differentiation, and fresh VPA in differentiation medium was added every 24 hours. On day eight of differentiation, the DeadEnd Fluorometric TUNEL assay (Promega) was used to label apoptotic nuclei, following the manufacturer's instructions. The numbers of clusters of apoptotic nuclei in each chamber were counted.

Regarding `CCCC(CCC)C(=O)O` [VPA, valproic acid], the half life entry in [1] is reported as “approximately 14 hours”. For the same compound, the “levels of activated p70S6K” value in the data set with p70S6K is “higher levels”. Also, the “α7 integrin in muscle extracts, saline versus VPA injected mice” value with α7 integrin is on record as “did not show changes”. Besides, in the data set on α7A integrin, the “α7A integrin isoform increase” value was found to be 2 fold. Also, in the data set with mdx/utrn−/− mice, the “collagen staining in quadriceps compared to controls” value is listed as “lower intensity of collagen staining”. In addition, the “α7B integrin isoform increase” value with α7B integrin was 1.5 fold. In the data set on Akt, the “levels of activated Akt in muscle” value is on record as “Significantly higher levels”. Moreover, in the data set with type VI collagen, the “less type VI collagen in muscle than control mice” value was “approximately 3 fold”. The “fewer apoptotic nuclei (TUNEL positive nuclear clusters) compared with control cells” value with α7+/− myotubes (2 mM VPA from day 2 of differentiation, day 6 of treatment) is given as “greater than 5 fold”. The “appearance of cultures after day 8 (controls vacuolated, some detachment)” value with α7+/− myotubes (2 mM VPA, phase-contrast) is “appeared relatively normal”.
